Results reported in article PMC8096265, “A functional LSD1 coregulator screen reveals a novel transcriptional regulatory cascade connecting R-loop homeostasis with epigenetic regulation” (Nucleic Acids Research, 2021).

Assays:
[1] = test system: rTetR-LSD1 at synP-mCherry reporter in NIH/3T3 cells; assay: Flow-cytometric synP-mCherry reporter silencing by rTetR-LSD1; assay type: cell-based, murine; settings: n = 3; for effect of inhibitor on rTetR-LSD1 activity at synP (mCherry silencing): 10 μM GSK-LSD1 or 400 nM TSA, started in parallel with DOX (1 μg/ml), vs DMSO
Text: The fluorescent reporter expressing mCherry from a synthetic promoter (synP), consisting of six tetO binding sites upstream of an EF1a promoter, was cloned into pMSCV vector, on which expression of mCherry was driven by the synP promoter element and coupled to Blasticidin resistance via a P2A (pMSCV-tetO-EF1a-mCherry-2A-Blasti). The rTetR-LSD1 fusion construct was cloned into a pRRL backbone by standard cloning methods. The LSD1 construct was kindly provided by Tim Somervaille. Expression was driven from an SFFV promoter and coupled to Hygromycin resistance via a P2A sequence (pRRL-rTetR-LSD1-P2A-Hygro). shRNA guides were cloned into the SGEN vector ([49]).
NIH/3T3, Lenti-X 293T and Platinum-E retroviral packaging cell lines were cultivated in DMEM high glucose media (Sigma-Aldrich) supplemented with 10% FBS, 20 mM glutamate, 10 mM sodium pyruvate, 10 mM HEPES (pH 7.3), 100 U/ml penicillin and […] in an incubator providing 37°C and 5% CO2. For retroviral packaging of pMSCV vectors, 20 μg of plasmid were precipitated for 20 min in HBS buffer (140 mM NaCl, 25 mM HEPES, 0.75 mM Na2HPO4, pH 7.0) together with 125 mM CaCl2 and 10 μg GagPol helper plasmid. The mix was added to a 10 cm dish with Platinum-E cells growing at 75–85% confluence in supplemented DMEM. After 16 and 24 h, the media was replaced with fresh DMEM. Supernatant containing the virus was gathered 40–50 h after transfection, filtered through a 0.45 μm filter and added to the target cells at 50–70% confluence. Antibiotic selection for pMSCV-tetO-EF1a-mCherry-2A-Blasti with 10 μg/ml Blasticidin was started 2 days after transduction and kept up for 7 days. For […] packaging of pRRL-vectors, plasmids were mixed with helper plasmids pCMVR8.74 (pCMVR8.74 was a gift from Didier Trono, Addgene #22036) and pCAG-Eco (pCAG-Eco was a gift from Arthur Nienhuis & Patrick Salmon, Addgene #35617) and 3× (w/w) excess of polyethyleneimine 25K in serum free DMEM. […] Expression of GFP and mCherry was analysed every 1–3 days using a MACSQuant Vyb flow cytometer.

[2] = test system: RNA:DNA hybrid structures (R-loops) in NIH/3T3 cells; assay: DRIP-qPCR with S9.6 antibody, R-loops; assay type: cell-based, murine; settings: relative to DMSO, NIH/3T3, n = 3
Procedure: Based on a detailed assessment of various DRIP protocols ([53]), DRIP was performed as described, with slight adaptations to workflow #19 ([53]). In brief, NIH/3T3 cells were harvested, washed once with 1X PBS and cross-linked in 1% formaldehyde/PBS for 10 min at room temperature. Crosslinking was quenched with 500 mM glycine for 5 min at room temperature. Cells were lysed in 300 μl of ChIP lysis buffer (50mM HEPES–KOH at pH 7.5, 140 mM NaCl, 1 mM EDTA at pH 8, 1% Triton X-100, 0.1% sodium-deoxycholate, 1% SDS) per 2 million cells for 30 min on ice and homogenized with a syringe every 10 min. Chromatin was fragmented by sonication using an EpiShear Probe Sonicator (Active Motif) for 2 × 12 cycles (20 s pulse, 30 s pause, 40% amplitude). The fragmented chromatin was supplemented with 300 mM NaCl and 50 μg of RNase A in 450 μl TE buffer (10 mM Tris–HCl pH 8, 10 mM EDTA pH 8) and incubated at 37°C for 1 h. The cross-linked D. melanogaster mononucleosomes were treated in parallel to obtain DNA for spike-in controls. To remove proteins and reverse the cross-links, the samples were treated with 15 μl of Proteinase K (20 mg/ml; Thermo Fisher Scientific) at 65°C for 16 h. […] The pellet was resuspended in 5 mM Tris–HCl, pH 8.5 and concentration was determined by NanoDrop. […]

EZH2 = assay: Global H3K27me3 signal after EZH2 inhibition; assay type: cell-based; settings: EZH2-specific inhibitor; Supplementary Figure S6C
[3] = test system: rTetR-LSD1 silencing of synP-mCherry in NIH/3T3 cells; assay: ChECS pooled shRNA screen, primary sequencing data; assay type: cell-based, murine; settings: 14 days DOX; for sequencing reads neg2 / sequencing reads neg3 / sequencing reads neg4 / sequencing reads neg5: mCherry-negative sorted population; for sequencing reads neg2 / sequencing reads pos2: replicate 2; for sequencing reads neg3 / sequencing reads pos3: replicate 3; for sequencing reads neg4 / sequencing reads pos4: replicate 4; for sequencing reads neg5 / sequencing reads pos5: replicate 5; for sequencing reads pos1 / sequencing reads pos2 / sequencing reads pos3 / sequencing reads pos4 / sequencing reads pos5: mCherry-positive sorted population; for sequencing reads pos1: replicate 1
Text: After spiking in control shRNAs at equimolar amounts, the shRNA-mirE library (5451 shRNAs and 8 control shRNAs) targeting 1010 chromatin-associated murine genes was transduced into NIH/3T3 cells expressing the synP-mCherry reporter and rTetR-LSD1. To ensure library representation, a total of 30 million cells were infected with 10% transduction efficiency using conditions that predominantly lead to a single retroviral integration and represent each shRNA in a calculated number of >500 cells. Cells were split into replicates and selected with 2.5 mg/ml Neomycin for 7 days before starting treatment with 1 μg/ml doxycycline. Throughout selection >3 × 10^6 cells per replicate were maintained at each passage to preserve library representation. After 14 days of DOX treatment, cells were sorted into mCherry-positive (top 6–8%, minimum of 5 × 10^5 cells) and mCherry-negative (lowest 75–80%, minimum of 6 × 10^6 cells, see Supplementary Figure S2) populations using a FACS Aria III. Genomic DNA for both populations and 5 replicates was isolated with phenol-extraction using PhaseLock tubes, followed by ethanol precipitation. For each sample, DNA from at least 10^6 cells was used as template in multiple parallel 50-μl PCR reactions, each containing 1 μg template, 1× AmpliTaq Gold buffer, 0.2 mM of each dNTP, 2 mM MgCl2, 0.3 μM of each primer and 1.25 U AmpliTaq Gold Polymerase (Life Technologies). In a first round of PCRs, random barcodes and sample barcodes were added to the shRNA sequences using the following cycling parameters: 95°C for 10 min; 28 cycles of (95°C for 30 s, 54°C for 45 s and 72°C for 60 s); 72°C for 7 min and primers MM2P51_for and MM2P71_rev (Supplementary Table S3). PCR products were combined for each sample, purified from a 1% agarose gel and 20 ng per sample were transferred to a second round of PCR, using similar cycling parameters as for PCR1, but with only 10 ng template per reaction, 6 cycles of amplification and primers MM2P52_for and MM2P72_rev_N708 (Supplementary Table S3). In the second PCR, standard Illumina P7 adaptors and the Illumina N708 index were added to the sequences (total product length = 428 bp). All primers used for the library preparation are listed in […]. The final libraries were cleaned up from a 1% agarose gel, pooled and analysed on an Illumina HiSeq 3000 deep sequencer (150 bp read length including the 22 nucleotides of the guide strand), using standard Illumina primers. Sequence processing was performed using a public Galaxy server (www.usegalaxy.eu). All primary screen data are provided in Supplementary Data Table S1. For each shRNA, the number of matching reads was normalized to the total number of library-specific reads per lane and imported into Microsoft Excel for further analysis. Completely depleted shRNAs (0 reads at T0) obtained a fold depletion value of 1 × 10^−3. The average enrichment score for each individual shRNA was calculated by dividing the geometric mean of the normalized reads of the mCherry+ population by the respective normalized reads mCherry– populations (mCherry+/mCherry–) across five replicates. The gene score was derived by summarizing the average enrichment score of all shRNAs per gene. P-values are based on a Poisson distribution of each shRNA in each individual replicate followed by the combination of all P-values across all replicates using Fisher′s method (cumulative χ^2). χ^2 is a chi-squared distribution with 2k degrees of freedom, where k is the number of tests being combined. This fact was used to determine the P-value for χ^2 followed by a Bonferroni correction for multiple comparison to obtain a P-value for each investigated gene in the library.

Row | Molecule | effect of inhibitor on rTetR-LSD1 activity at synP (mCherry silencing) [1] | sequencing reads neg2 [3] | sequencing reads neg3 [3] | sequencing reads neg4 [3] | sequencing reads neg5 [3] | sequencing reads pos1 [3] | sequencing reads pos2 [3] | sequencing reads pos3 [3] | sequencing reads pos4 [3] | sequencing reads pos5 [3] | further results
1 | CCCc1cc(C)[nH]c(=O)c1CNC(=O)c1cc(-c2ccnc(N3CCN(C)CC3)c2)cc2c1cnn2C(C)C [GSK343] | – | – | – | – | – | – | – | – | – | – | LSD1 silencing capacity at the synP element after GSK343 treatment ([1]; 5 μM GSK343 vs DMSO during rTetR-LSD1 recruitment via DOX, time course): diminished LSD1 silencing capacity at the synP element; R-loop occupancy after GSK343 treatment ([2]; 5 μM GSK343, 3 days, synP element and representative endogenous loci): increased R-loop occupancy; H3K27me3 signal after GSK343 treatment (EZH2): global reduction of H3K27me3 signal
2 | c1ccc([C@@H]2C[C@H]2NC2CCNCC2)cc1 [GSK-LSD1] | the activity of rTetR-LSD1 at the synP element is dependent on the catalytic activity of LSD1 and HDACs | – | – | – | – | – | – | – | – | – | R-loops after GSK-LSD1 treatment ([2]; 50 μM GSK-LSD1, 3 days, synP element and representative endogenous regions): substantial increase in R-loops
3 | CC(/C=C/C(=O)NO)=C\[C@@H](C)C(=O)c1ccc(N(C)C)cc1 [Trichostatin A (TSA), Trichostatin A] | the activity of rTetR-LSD1 at the synP element is dependent on the catalytic activity of LSD1 and HDACs | – | – | – | – | – | – | – | – | – | –
4 | Homez.5313: library shRNA, guide TAAAACAGTAGTTCCTAGCCTT | – | 0.001 | 22 | 0 | 4 | 130 | 19 | 22 | 4 | 48 | –
5 | Kdm4b.2934: library shRNA, guide TTCTTGGTGATGACGATCTGGC | – | 0.001 | 0 | 0 | 14 | 14 | 426 | 0 | 1 | 159 | –
